Test results from patent publication US11000490B2, “Stable aqueous capsaicin injectable formulations and medical uses thereof” (priority 2016, dated 2021).

Legend:
in vivo = settings: both sexes, New Zealand White, rabbit, rabbits, 0.3 mg trans-capsaicin as Capsaicin Formulation A, intra-articular, Day 1, combined males and females
Description: Animals were administered a single dose of test article (i.e., Capsaicin Formulation A, or placebo) on Day 1 via intra-articular injection into the right stifle joint. Dosing was followed by an observation period of 4 weeks. […] Prior to injection of test article, animals were sedated via gas anesthesia with sevoflurane. The gas was administered by designated technicians using a nose cone. Following anesthesia but prior to intra-articular injection, the injection site was prepared aseptically with three or more chlorhexidine scrubs, wiping with sterile water between each scrub. Animals were administered 1 mg/kg of midazolam and 0.6 mg/kg of meloxicam SR subcutaneously prior to gas anesthesia. […] The animal was monitored for pain and discomfort during recovery and was returned to its home cage after complete recovery. […] Additional pain management of animals was monitored by veterinary staff.
Assessment of toxicity was based on mortality, clinical observations (including qualitative food consumption), body weights, physical examinations, and clinical and anatomic pathology. […] Plasma samples were analyzed for capsaicin content. […] Abnormal findings or an indication of normal were recorded. Body weights were recorded twice during the pre-dose phase and on Days 1, 8, 15, and 22 of the dosing phase. […]

[1] = system: New Zealand White rabbits; settings: single intra-articular dose as Capsaicin Formulation A
purebred beagle dogs = settings: single intra-articular dose via Capsaicin Formulation A

COc1cc(CNC(=O)CCCCC=CC(C)C)ccc1O [trans-capsaicin, N-[(4-hydroxy-3-methoxyphenyl)methyl]-8-methylnon-6-enamide]
Cmax (in vivo): 37.9 ng/mL | AUC(0-t) (in vivo; read-out: mean AUC0-24): 27.8 ng·h/mL | no observed adverse effect level (NOAEL) [1]: 0.3 mg | no observed adverse effect level (NOAEL) (purebred beagle dogs): 1 mg
